Values of other authors, collected in patent US20110268797A1, “MULTICOATED ALISKIREN FORMULATIONS” (Sanovel IIac Sanayi Ve Ticaret Anonim Sirketi, priority 2010, published 2011).
Read-outs that look alike come from different tables or passages of the source.

solubility (in n-octanol): freely soluble
solubility (in phosphate buffer): freely soluble
solubility (in water): freely soluble
Compound: COCCCOc1cc(C[C@@H](C[C@H](N)[C@@H](O)C[C@H](C(=O)NCC(C)(C)C(N)=O)C(C)C)C(C)C)ccc1OC [Aliskiren hemifumarate]
